Here are results for eight compounds from PubChem BioAssay (NCI).

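96-well plates; 48 h exposure; 5 concentrations. Endpoints by linear interpolation between flanking doses. Not reached: highest tested concentration assigned. The concentration for full growth arrest is given as TGI.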

Some test systems named below: SF-539 CNS; SR leukemia; SW-620 colon; MOLT-4 leukemia; EKVX NSCLC; UO-31 renal; SNB-75 CNS; SK-MEL-2 melanoma; A498 renal; DU-145 prostate; HCC-2998 colon; M14 melanoma; SK-MEL-5 melanoma; PC-3 prostate; NCI-H226 lung; MDA-MB-435; OVCAR-4 ovarian; ACHN renal; COLO 205 colon.
What all share (assay): NCI anticancer screen, dose series, 48 h

Consider `COc1cc2cc(C(=O)N3CC(CCl)c4c3cc(O)c3ccccc43)[nH]c2c(OC)c1OC` (stereo unspecified), for which the TGI is less than 0.005 µM in the assay on SF-539 CNS; more than 50 µM with SR leukemia; more than 50 µM in the assay on SW-620 colon; 0.153 µM in the assay with MOLT-4 leukemia; 0.597 µM in the assay on EKVX NSCLC; more than 50 µM in the assay on UO-31 renal. The TGI was less than 0.005 µM in the assay with SNB-75 CNS; less than 0.005 µM in the assay with SK-MEL-2 melanoma; 0.82 µM in the assay on A498 renal; more than 50 µM with DU-145 prostate; less than 0.005 µM in the assay on HCC-2998 colon; less than 0.005 µM in the assay on M14 melanoma. The compound further gave a TGI in the assay with SK-MEL-5 melanoma of 0.00656 µM.

Turning to `CN(C)/C=C/c1c2c(nc3ccccc13)C(=O)c1ccccc1C2=O`, the TGI was found to be 5.4 µM with SF-539 CNS; 3.09 µM in the assay with SR leukemia; 5.04 µM in the assay with SW-620 colon; 6.32 µM in the assay on MOLT-4 leukemia; 3.77 µM with PC-3 prostate; 5.47 µM with EKVX NSCLC. Besides, the TGI in the assay with UO-31 renal came to 7.2 µM; in the assay on NCI-H226 lung, 5.21 µM; in the assay with MDA-MB-435 it was 0.206 µM; in the assay on SK-MEL-2 melanoma, 6.27 µM; in the assay with OVCAR-4 ovarian, 5.42 µM; with ACHN renal, 3.44 µM. The TGI with A498 renal was found to be 9.24 µM; in the assay on DU-145 prostate it was 2.69 µM; in the assay on COLO 205 colon it was 5.5 µM; in the assay with HCC-2998 colon, 5.17 µM; in the assay with M14 melanoma, 1.92 µM; in the assay with SK-MEL-5 melanoma, 0.536 µM.

In the case of `C[N+](C)(C)C(C1=CCCC1=O)c1ccccc1` (stereo unspecified), the TGI with SF-539 CNS was more than 100 µM; in the assay on SR leukemia it was 44.5 µM; with SW-620 colon it was 70.4 µM; with MOLT-4 leukemia it was 58.3 µM; with PC-3 prostate, more than 100 µM; in the assay with EKVX NSCLC it was more than 100 µM. Also, the TGI in the assay on UO-31 renal is more than 100 µM; in the assay with SNB-75 CNS, more than 100 µM; with NCI-H226 lung, more than 100 µM; with MDA-MB-435, 72.7 µM; with SK-MEL-2 melanoma, more than 100 µM; with OVCAR-4 ovarian, more than 100 µM. The TGI in the assay with ACHN renal was 64.3 µM; with A498 renal, more than 100 µM; in the assay on DU-145 prostate, more than 100 µM; with COLO 205 colon it was more than 100 µM; in the assay on M14 melanoma it was more than 100 µM; with SK-MEL-5 melanoma it was more than 100 µM.

With `CN(C)Cc1cc(C(=O)/C=C/c2ccc(F)cc2)cc(CN(C)C)c1O`, the TGI in the assay with SF-539 CNS was 44.4 µM; in the assay with SR leukemia, 71.4 µM; in the assay with SW-620 colon, 75.5 µM; in the assay with MOLT-4 leukemia, 53.8 µM; in the assay with PC-3 prostate, more than 100 µM; with EKVX NSCLC, more than 100 µM. The TGI in the assay on UO-31 renal was 38.9 µM; in the assay with SNB-75 CNS, 87.2 µM; with NCI-H226 lung, more than 100 µM; with MDA-MB-435 it was 38.9 µM; in the assay on OVCAR-4 ovarian, more than 100 µM; in the assay with ACHN renal, 78.3 µM. The TGI in the assay with A498 renal is 94.8 µM; with DU-145 prostate, more than 100 µM; in the assay with M14 melanoma, 27.4 µM; in the assay with SK-MEL-5 melanoma it was 35.5 µM.

On to `CS/C=C\C(=O)O[C@H]1C[C@@H]2[C@@H](O)c3occ(C)c3C[C@]2(C)[C@@H](C)C1`, for which the TGI is 37.7 µM in the assay with SF-539 CNS; 99.4 µM in the assay with SR leukemia; more than 100 µM in the assay on SW-620 colon; 56.3 µM with MOLT-4 leukemia; more than 100 µM in the assay on PC-3 prostate; more than 100 µM with EKVX NSCLC. Further, the TGI came out at 28.7 µM with NCI-H226 lung; 43.6 µM in the assay with MDA-MB-435; 51.6 µM in the assay on OVCAR-4 ovarian; 63.2 µM in the assay on ACHN renal; 90.3 µM with DU-145 prostate; 35.6 µM in the assay on COLO 205 colon. The TGI came to 85.7 µM in the assay with HCC-2998 colon, 38.5 µM in the assay with M14 melanoma and 28.2 µM with SK-MEL-5 melanoma.

Regarding `CCOC(=O)N1N(c2ccccc2)C(=O)C1(c1ccccc1)c1ccccc1`, the TGI in the assay on SF-539 CNS, with SR leukemia, in the assay with SW-620 colon, in the assay on MOLT-4 leukemia, in the assay on PC-3 prostate and with EKVX NSCLC was more than 100 µM in each case. The TGI with UO-31 renal is more than 100 µM; in the assay on NCI-H226 lung it was more than 100 µM; in the assay on MDA-MB-435, more than 100 µM; in the assay with SK-MEL-2 melanoma it was 70.5 µM; with OVCAR-4 ovarian it was more than 100 µM; in the assay on ACHN renal, more than 100 µM. For the same compound, the TGI in the assay on A498 renal, in the assay with DU-145 prostate, with COLO 205 colon, in the assay on HCC-2998 colon, with M14 melanoma and with SK-MEL-5 melanoma was more than 100 µM each time.

As for `O=S(=O)(/N=C(\NO)Nc1ccc(Cl)cc1)C1CC=C(c2ccon2)S1` (stereo unspecified), the TGI in the assay with SF-539 CNS is 16.9 µM; with SR leukemia, 19.8 µM; in the assay on SW-620 colon it was more than 100 µM; with MOLT-4 leukemia it was more than 51.3 µM; with PC-3 prostate it was more than 100 µM; in the assay with EKVX NSCLC, more than 100 µM. In addition, the TGI was 81.6 µM in the assay on UO-31 renal; more than 79.8 µM in the assay on NCI-H226 lung; more than 100 µM with MDA-MB-435; 55.1 µM in the assay with SK-MEL-2 melanoma; more than 100 µM in the assay with OVCAR-4 ovarian; more than 100 µM with ACHN renal. The TGI with A498 renal is more than 75.9 µM; in the assay with DU-145 prostate it was more than 100 µM; in the assay on COLO 205 colon, 35 µM; in the assay with HCC-2998 colon it was 50.4 µM; in the assay with M14 melanoma it was more than 100 µM; in the assay with SK-MEL-5 melanoma, more than 62.1 µM.

Turning to `S=C(c1c[nH]c2ccccc12)N1CCCCC1`, the TGI in the assay on SF-539 CNS, with SR leukemia, in the assay with SW-620 colon, in the assay on MOLT-4 leukemia, with PC-3 prostate and with EKVX NSCLC was more than 100 µM in each case. The TGI in the assay on NCI-H226 lung, in the assay on MDA-MB-435, in the assay on SK-MEL-2 melanoma, with ACHN renal, with A498 renal and with DU-145 prostate was more than 100 µM in each case. For the same compound, the TGI with COLO 205 colon, in the assay with M14 melanoma and in the assay with SK-MEL-5 melanoma was more than 100 µM throughout.
